Results taken from PMC5432998, “Recombinant expression of thermostable processive MtEG5 endoglucanase and its synergism with MtLPMO from Myceliophthora thermophila during the hydrolysis of lignocellulosic substrates” (Biotechnology for Biofuels, 2017).

Biological target: T1, MtEG5A (Thermothelomyces thermophilus, UniProt G2Q5D8)
T1 construct: gene MYCTH_86753; mature GH5 with CBM1; ORF 389 aa, signal peptide removed (printed MKSSILASVFATGAVA); C-terminal myc/His tag; Pichia pastoris X33
T1 sequence (G2Q5D8 17-389): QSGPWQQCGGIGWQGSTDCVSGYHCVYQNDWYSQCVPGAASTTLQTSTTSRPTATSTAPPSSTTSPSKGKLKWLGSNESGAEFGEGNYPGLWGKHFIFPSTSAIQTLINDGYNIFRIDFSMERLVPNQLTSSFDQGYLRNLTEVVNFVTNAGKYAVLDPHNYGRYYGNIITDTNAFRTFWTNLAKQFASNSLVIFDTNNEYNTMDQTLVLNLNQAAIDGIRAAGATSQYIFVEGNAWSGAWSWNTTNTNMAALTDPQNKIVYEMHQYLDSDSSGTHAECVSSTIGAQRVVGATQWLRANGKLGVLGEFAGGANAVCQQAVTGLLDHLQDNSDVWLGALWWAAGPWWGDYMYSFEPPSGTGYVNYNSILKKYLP
Experiment: HPAEC-PAD hydrolysis time course
Type: biochemical
Details: 40 uM substrate; citrate-phosphate pH 5.0; 50 °C

| Compound | HPAEC-PAD hydrolysis time course |
| --- | --- |
| OC[C@H]1O[C@@H](O[C@H]2[C@H](O)[C@@H](O)[C@H](O[C@H]3[C@H](O)[C@@H](O)[C@H](O[C@H]4[C@H](O)[C@@H](O)[C@H](O[C@H]5[C@H](O)[C@@H](O)C(O)O[C@@H]5CO)O[C@@H]4CO)O[C@@H]3CO)O[C@@H]2CO)[C@H](O)[C@@H](O)[C@@H]1O (some centres unmarked) [G5, cellopentaose] | the enzyme catalyzed the hydrolysis of G5, the products were G2 and G3 |
| OC[C@H]1O[C@@H](O[C@H]2[C@H](O)[C@@H](O)[C@H](O[C@H]3[C@H](O)[C@@H](O)[C@H](O[C@H]4[C@H](O)[C@@H](O)[C@H](O[C@H]5[C@H](O)[C@@H](O)[C@H](O[C@H]6[C@H](O)[C@@H](O)C(O)O[C@@H]6CO)O[C@@H]5CO)O[C@@H]4CO)O[C@@H]3CO)O[C@@H]2CO)[C@H](O)[C@@H](O)[C@@H]1O (some centres unmarked) [G6, cellohexaose] | The comparison of catalytic efficiency (k cat /K m) values of MtEG5A against the oligosaccharides |
